Assay results taken from patent US20140154730A1, “METHOD FOR STABILIZATION OF FLUID BIOLOGICAL SAMPLES” (DENATOR AB, priority 2011, published 2014).

Legend:
[1] = Stabilization of oseltamivir in mouse blood spotted on Whatman FTA DMPK-C card; type: in vitro ADME; conditions: mouse blood spiked 500 ng/mL; for % oseltamivir metabolized: 25 μL spot on Whatman FTA DMPK-C card
Experimental: Oseltamivir is an oral prodrug of oseltamivir carboxylate, a selective inhibitor of viral neuramidase glycoprotein in influenza A. Oseltamivir undergoes fast bioconversion to oseltamivir carboxylate mostly by carboxylesterase 1 (CES 1).
Mouse blood was spiked with oseltamivir, 500 ng/mL. 25 μL, blood was spotted on Whatman FTA DMPK-C card. Spot were left to dry at room temperature, or heat treated using a Stabilizor™ System (Denator A B, Göteborg, Sweden) then left to dry.

[2] = Effect of different drying conditions on oseltamivir metabolism in spotted mouse blood; type: in vitro ADME; conditions: mouse blood spiked 2000 ng/mL, 25 μL spot on Whatman FTA DMPK-C card
Experimental: (§1) FIG. 2 is a graph showing the amount of metabolized Oseltamivir in samples following different treatments. Samples A were treated according to standard procedures according to manufacturer's instructions, i.e. dried in open air for 2 hrs. Samples B were dried in closed bags with silica. Samples C were heat stabilized and subsequently dried in open air. Samples D were heat stabilized and subsequently dried in closed bags with silica. Values in FIG. 2 showing % oseltamivir metabolized are mean of three samples
as §1, with “Mouse blood was spiked with oseltamivir, 2000 ng/mL. 25 μL, blood was spotted on Whatman FTA DMPK-C card. Spots were allowed to dry under” for “FIG. 2 is a graph showing the amount of metabolized Oseltamivir in samples following”, “conditions, with our without prior heat stabilization.” for “treatments.”, “samples.” for “samples”

Structure (SMILES): CCOC(=O)C1=C[C@@H](OC(CC)CC)[C@H](NC(C)=O)[C@@H](N)C1 [oseltamivir]
- % oseltamivir metabolized ([1]; treatment: Drying at room temperature only): 27%
- % oseltamivir metabolized ([1]; treatment: Heating (Stabilizor System) then left to dry): 3%
- metabolism of the prodrug, heat treatment compared to only passive drying ([1]; sample on paper, heat treated): strongly reduced the metabolism
- amount of metabolized oseltamivir, not heat stabilized, dried in closed bags with silica (Samples B) ([2]; compared to drying in open air): even higher amount of metabolized oseltamivir
- amount of metabolized oseltamivir, heat stabilized, dried in closed bags with silica (Samples D) ([2]; compared to drying in open air (Samples C)): does not affect the amount of metabolized oseltamivir
- amount of metabolized oseltamivir, heat stabilized samples (C, D) versus not heat stabilized ([2]; mean of three samples): significant lower amount of metabolized oseltamivir
